Results reported in patent publication US6482809B1, “Use of tiludronic acid and derivatives thereof in poultry for the preparation of a medicinal product for preventing and treating osteoporosis” (Ceva Sante Animale, priority 2000, dated 2002).

Experiments:
[1] = system: trabecular bone of laying hens; settings: cited from earlier work
[2] = system: medullary bone of laying hens; settings: 18 weeks after the onset of laying; treated before the onset of laying; cited from earlier work
[3] = system: egg production of laying hens; settings: administered during laying; decrease or even stoppage of laying as a function of the dose; cited from earlier work
[4] = system: trabecular bone of the tarsometatarsal bone of hens; test: Histomorphometric examination of trabecular bone volume of the tarsometatarsal bone after a single subcutaneous administration; assay type: in vivo, hens of ISA Brown strain
Method: (§1) A total number of 216 hens of ISA Brown strain between 15 and 17 weeks old was divided into 3 groups for the purpose of evaluating the effects on bone of a single subcutaneous administration of tiludronic acid, in the form of its sodium salt (disodium tiludronate).
(§2) Three doses were compared: 0, 1 and 10 mg/kg (corresponding amount of tiludronic acid/kg). The tiludronic acid was administered in the form of injectable aqueous solutions such that the volume injected per bird was 1 ml per kilo of live weight. The tiludronic acid solutions were thus concentrated to 0.1% and 1% for the doses of 1 and 10 mg/kg, respectively. The control group received a placebo corresponding to water for an injectable preparation. The injections were performed subcutaneously in the region above the superficial pectoral muscle.
(§3) The hens were housed in individual cages in the same building at controlled temperature and hygrometry. Each animal was identified by a number carried on a ring attached to a wing. They received the same standard feed for laying hens, freely throughout the duration of the study. The drinking water was also distributed freely.
(§4) The average age of onset of laying for the hens in this strain is 20 weeks. Consequently, the average delay between the treatment and the age of onset of laying had to be from 3 to 5 weeks. The duration of the study was 40 weeks. At the end of the study, the hens were 55 weeks old.
(§5) Half of the total number was sacrificed on laying the first egg, in order to carry out a histomorphometric examination performed on a decalcified section of the proximal region of one of the tarsometatarsal bones in order to measure the trabecular and medullary bone volumes.
(§6) The other half of the total number of hens was monitored up to 55 weeks of age (i.e. after about 34 weeks of laying), at which point all the remaining animals were sacrificed. The same bone examination was carried out on these animals as on the hens sacrificed after laying the first egg.
(§7) The bone parameters were compared by means of a one-factor variance analysis (dose factor).
(§8) The histomorphometric examination carried out allows the changes in the structure of the bone to be assessed.

[5] = system: medullary bone of the tarsometatarsal bone of hens; test: Histomorphometric examination of medullary bone volume of the tarsometatarsal bone after a single subcutaneous administration; assay type: in vivo, hens of ISA Brown strain
Method: as §1, §2, §3, §4, §5, §6, §7, §8

[6] = system: osteoporosis in menopausal women; settings: 50 or 200 mg per person orally; cited from earlier work
[7] = at 55 weeks old, 1 mg/kg single subcutaneous injection
[8] = at 55 weeks old, 10 mg/kg single subcutaneous injection

Molecule | Trabecular bone volume higher than that of the control hens ([1]; after laying for 18 weeks, 0.01 mg/kg s.c., 6 administrations (total 0.06 mg/kg) from 14 weeks old) | Trabecular bone volume higher on average in the treated hens than in the control hens ([1]; onset of laying, 0.01 mg/kg subcutaneously, repeated before laying) [%] | Medullary bone volume less than that of the control animals [2] | Effect on egg production [3] | Trabecular bone loss during laying ([4]; 1 mg/kg, onset of laying to 55 weeks old) | Trabecular volume versus controls ([4]; at 55 weeks of age, 10 mg/kg) | Trabecular bone volume of the tarsometatarsal bone [4, 7] [%] | Trabecular bone volume of the tarsometatarsal bone [4, 8] [%] | Variation of trabecular bone volume between the two periods ([4]; onset of laying to 55 weeks old, 1 mg/kg) | Variation of trabecular bone volume between the two periods ([4]; onset of laying to 55 weeks old, 10 mg/kg) [%] | Trabecular bone volume of the tarsometatarsal bone ([4]; onset of laying, 1 mg/kg single subcutaneous injection at 15-17 weeks old) [%] | Gain in trabecular bone volume compared with the controls ([4]; onset of laying, 10 mg/kg) [%] | Trabecular bone volume of the tarsometatarsal bone ([4]; onset of laying, 10 mg/kg single subcutaneous injection at 15-17 weeks old) [%] | Average medullary bone volumes, comparison between the groups ([5]; at 55 weeks old, 0, 1 and 10 mg/kg) | Volume of medullary bone of the tarsometatarsal bone [5, 7] [%] | Medullary bone volume higher than that in the control animals ([5]; at 55 weeks old, 10 mg/kg) [%] | Volume of medullary bone of the tarsometatarsal bone [5, 8] [%] | Medullary bone volumes, comparison between the groups ([5]; onset of laying, 0, 1 and 10 mg/kg) | Efficacy in osteoporosis in menopausal women [6]
NCCCC(O)(P(=O)(O)O)P(=O)(O)O [alendronic acid] | about 35% | ≤ 30 | about 20% | harmful effect on egg production | – | – | – | – | – | – | – | – | – | – | – | – | – | – | –
tiludronic acid | – | – | – | – | no trabecular bone loss took place during laying | significantly higher than that of the controls | 11.3 ± 2.5 | 12.0 ± 2.0 | +4% | −12 | 10.9 ± 2.9 | 12 | 13.7 ± 3.3 | not significantly different between the groups | 2.75 ± 2.72 | 20 | 3.53 ± 3.04 | does not reveal any significant difference between the groups | not demonstrated their efficacy
